ChEMBL document CHEMBL3526058, “Investigating the enteroenteric recirculation of apixaban, a factor Xa inhibitor: administration of activated charcoal to bile duct-cannulated rats and dogs receiving an intravenous dose and use of drug transporter knockout rats” (Drug Metab Dispos, 2013)

What was measured:
[1] = Half life in beagle dog at 5 mg/kg, po followed by activated charcoal administration 3 hrs post compound dosing; format: ADME, organism-based, Canis lupus familiaris; set-up: dose 5 mg/kg, route oral; details: in vivo
[2] = Apparent oral clearance in beagle dog at 5 mg/kg, po followed by activated charcoal administration 3 hrs post compound dosing; format: ADME, organism-based, Canis lupus familiaris; set-up: dose 5 mg/kg, route oral; details: in vivo
[3] = Oral steady-state volume of distribution in beagle dog at 5 mg/kg followed by activated charcoal administration 3 hrs post compound dosing; format: ADME, organism-based, Canis lupus familiaris; set-up: dose 5 mg/kg; details: in vivo, read-out: Vss/F
[4] = Mean residence time in beagle dog at 5 mg/kg, po followed by activated charcoal administration 3 hrs post compound dosing; format: ADME, organism-based, Canis lupus familiaris; set-up: dose 5 mg/kg, route oral; details: in vivo
[5] = Oral bioavailability in beagle dog at 5 mg/kg followed by activated charcoal administration 3 hrs post compound dosing; format: ADME, organism-based, Canis lupus familiaris; details: in vivo
Rattus norvegicus = organism: Rattus norvegicus; experiment: Plasma clearance in rat relative to hepatic blood flow; format: ADME, organism-based; details: in vivo
Canis familiaris = organism: Canis familiaris; experiment: Plasma clearance in dog relative to hepatic blood flow; format: ADME, organism-based, Canis lupus familiaris; details: in vivo
Homo sapiens [6] = organism: Homo sapiens; experiment: Plasma clearance in human relative to hepatic blood flow; format: ADME, organism-based; details: in vivo
Homo sapiens [7] = experiment: Volume of distribution in human administered bid orally; format: ADME, organism-based; details: in vivo, po
[8] = Half life in human administered bid orally; format: ADME, organism-based; details: in vivo, po
[9] = AUC (0 to infinity) in wild-type Sprague-Dawley rat at 4 mg/kg, po; format: ADME, organism-based; set-up: time infinity, dose 4 mg/kg, route oral; details: plasma
[10] = Cmax in wild-type Sprague-Dawley rat at 4 mg/kg, po; format: ADME, organism-based; set-up: dose 4 mg/kg, route oral; details: in vivo
[11] = Half life in wild-type Sprague-Dawley rat at 4 mg/kg, po; format: ADME, organism-based; set-up: dose 4 mg/kg, route oral; details: in vivo
[12] = Apparent oral clearance in wild-type Sprague-Dawley rat at 4 mg/kg, po; format: ADME, organism-based; set-up: dose 4 mg/kg, route oral; details: in vivo
[13] = Oral steady-state volume of distribution in wild-type Sprague-Dawley rat at 4 mg/kg; format: ADME, organism-based; set-up: dose 4 mg/kg; details: in vivo, read-out: Vss/F
[14] = Mean residence time in wild-type Sprague-Dawley rat at 4 mg/kg, po; format: ADME, organism-based; set-up: dose 4 mg/kg, route oral; details: in vivo
[15] = Oral bioavailability in wild-type Sprague-Dawley rat at 4 mg/kg; format: ADME, organism-based; details: in vivo
[16] = AUC (0 to infinity) in P-gp-knockout Sprague-Dawley rat at 4 mg/kg, po; format: ADME, organism-based; set-up: time infinity, dose 4 mg/kg, route oral; details: plasma
[17] = Cmax in P-gp-knockout Sprague-Dawley rat at 4 mg/kg, po; format: ADME, organism-based; set-up: dose 4 mg/kg, route oral; details: in vivo
[18] = Half life in P-gp-knockout Sprague-Dawley rat at 4 mg/kg, po; format: ADME, organism-based; set-up: dose 4 mg/kg, route oral; details: in vivo
[19] = Apparent oral clearance in P-gp-knockout Sprague-Dawley rat at 4 mg/kg, po; format: ADME, organism-based; set-up: dose 4 mg/kg, route oral; details: in vivo
[20] = Oral steady-state volume of distribution in P-gp-knockout Sprague-Dawley rat at 4 mg/kg; format: ADME, organism-based; set-up: dose 4 mg/kg; details: in vivo, read-out: Vss/F
[21] = Mean residence time in P-gp-knockout Sprague-Dawley rat at 4 mg/kg, po; format: ADME, organism-based; set-up: dose 4 mg/kg, route oral; details: in vivo
[22] = Oral bioavailability in P-gp-knockout Sprague-Dawley rat at 4 mg/kg; format: ADME, organism-based; details: in vivo
[23] = AUC (0 to infinity) in BCRP-knockout Sprague-Dawley rat at 4 mg/kg, po; format: ADME, organism-based; set-up: time infinity, dose 4 mg/kg, route oral; details: plasma
[24] = Cmax in BCRP-knockout Sprague-Dawley rat at 4 mg/kg, po; format: ADME, organism-based; set-up: dose 4 mg/kg, route oral; details: in vivo
[25] = Half life in BCRP-knockout Sprague-Dawley rat at 4 mg/kg, po; format: ADME, organism-based; set-up: dose 4 mg/kg, route oral; details: in vivo
[26] = Apparent oral clearance in BCRP-knockout Sprague-Dawley rat at 4 mg/kg, po; format: ADME, organism-based; set-up: dose 4 mg/kg, route oral; details: in vivo
[27] = Oral steady-state volume of distribution in BCRP-knockout Sprague-Dawley rat at 4 mg/kg; format: ADME, organism-based; set-up: dose 4 mg/kg; details: in vivo, read-out: Vss/F
[28] = Mean residence time in BCRP-knockout Sprague-Dawley rat at 4 mg/kg, po; format: ADME, organism-based; set-up: dose 4 mg/kg, route oral; details: in vivo
[29] = Oral bioavailability in BCRP-knockout Sprague-Dawley rat at 4 mg/kg; format: ADME, organism-based; details: in vivo
[30] = AUC (0 to infinity) in Sprague-Dawley rat at 4 mg/kg, po administered 1 hr post GF-120918 treatment; format: ADME, organism-based; set-up: time infinity, dose 4 mg/kg, route oral; details: plasma, with GF-120918

- half-life [1]: 180 min
- CL/F [2]: 1.68 mL/min/kg
- Vd/F [3]: 0.5 L/kg
- MRT [4]: 5.3 h
- bioavailability [5]: 77%
- CL (Rattus norvegicus): < 5%
- CL (Canis familiaris): < 5%
- CL (Homo sapiens [6]): < 5%
- Vd (Homo sapiens [7]): 0.3 L/kg
- half-life [8]: 720 min
- AUC(0-inf) [9]: 1390 ng·h/mL
- Cmax [10]: 420 ng/mL
- half-life [11]: 198 min
- CL/F [12]: 25 mL/min/kg
- Vd/F [13]: 5.8 L/kg
- MRT [14]: 3.8 h
- bioavailability [15]: 49%
- AUC(0-inf) [16]: 3340 ng·h/mL
- Cmax [17]: 940 ng/mL
- half-life [18]: 228 min
- CL/F [19]: 10 mL/min/kg
- Vd/F [20]: 2.4 L/kg
- MRT [21]: 3.8 h
- bioavailability [22]: 71%
- AUC(0-inf) [23]: 5710 ng·h/mL
- Cmax [24]: 1920 ng/mL
- half-life [25]: 150 min
- CL/F [26]: 6.67 mL/min/kg
- Vd/F [27]: 1.1 L/kg
- MRT [28]: 2.9 h
- bioavailability [29]: 122%
- AUC(0-inf) [30]: 6570 ng·h/mL
Structure (SMILES): COc1ccc(-n2nc(C(N)=O)c3c2C(=O)N(c2ccc(N4CCCCC4=O)cc2)CC3)cc1
